These results are taken from ChEMBL document CHEMBL1128626, “The synthesis and biological activity of enediyne minor groove binding hybrids” (Bioorg Med Chem Lett, 1995).

Test [1] deals with Nucleic Acid. The test is described as follows: Concentration of drug which induced cleavage of 50% of PM2 supercoiled DNA in the absence of beta-mercaptoethanol. Format: functional.
For test [2], the system named is Nucleic Acid. Put plainly: Concentration of drug which induced cleavage of 50% of PM2 supercoiled DNA in the presence of beta-mercaptoethanol. Format: functional.
Test [3] has as its system HCT-116. Put plainly: Cytotoxicity against HCT116 human colon tumor cell line. Format: functional, cell-based.

pIC50: −log10 of the molar value.

The pIC50 is the IC50 on a negative log10 scale, so that one unit is a factor of ten. A higher pIC50 goes with a low IC50.

For `O=C1C2=CCC[C@@]1(O)C#C/C=C\C#C[C@@H]2O`, the values for the Cleavage in test [1] and in test [2] were 1000 µM and 100 µM, respectively.
On to `C=C(OC)C(=O)Nc1cc(OC)c(OC)cc1C(=O)O[C@H]1C[C@H](O[C@@H]2C(=O)C(NC(=O)OC)=C3/C(=C\CSSSC)[C@]2(O)C#C/C=C\C#C[C@@H]3O[C@@H]2O[C@H](C)[C@@H](NO[C@H]3C[C@H](O)[C@H](SC)[C@@H](C)O3)[C@H](O)[C@H]2O[C@H]2C[C@H](OC)[C@@H](NC(C)C)CO2)O[C@@H](C)[C@H]1O` [ESPERAMICIN A1], for which the pIC50 in test [3] was 12.00. Besides, the Cleavage was 10 µM in test [1] and below 1 µM in test [2].
The like results for `Cn1cc(NC(=O)Cc2ccc(CO[C@H]3C#C/C=C\C#C[C@]4(O)CCC=C3C4=O)cc2)cc1C(=O)Cc1cc(C(=O)NCCC(=N)N)n(C)c1` were, in that order, 3.19, 10 µM and below 1 µM.
On the same counts, the results for `Cn1cc(NC(=O)c2cc(NC(=O)Cc3ccc(COCO[C@@]45C#C/C=C\C#C[C@H](O)C(=CCC4)C5=O)cc3)cn2C)cc1C(=O)NCCC(=N)N` are 5.13, 100 µM and 10 µM.
